Test system: MV-4-11 cells
Experiment: Gene expression microarray analysis (Affymetrix PrimeView) and GSEA
Format: cell-based, human
Set-up: RFU PODN (11730768_x_at) / Fold change /veh PODN (11730768_x_at) / RFU LINC00158 (11744669_a_at) / Fold change /veh LINC00158 (11744669_a_at) / RFU DUSP10 (11751237_a_at) / Fold change /veh DUSP10 (11751237_a_at) / RFU ID3 (11757404_x_at) / Fold change /veh ID3 (11757404_x_at) / RFU PLEKHG5 (11737974_s_at) / Fold change /veh PLEKHG5 (11737974_s_at) / RFU LRRC4B (11730491_at) / Fold change /veh LRRC4B (11730491_at) / RFU GIMAP4 (11747438_a_at) / Fold change /veh GIMAP4 (11747438_a_at) / RFU KRT8 (11758183_x_at) / Fold change /veh KRT8 (11758183_x_at) / RFU CNN1 (11734310_a_at) / Fold change /veh CNN1 (11734310_a_at) / RFU VPS37D (11726825_at) / Fold change /veh VPS37D (11726825_at) / RFU C10orf10 (11716522_x_at) / Fold change /veh C10orf10 (11716522_x_at) / RFU KIR2DL2 /// KIR2DL4 /// KIR2DL5A /// KIR2DL5B /// KIR2DS1 /// KIR2DS2 /// KIR2DS3 /// KIR2DS4 /// KIR3DL3 /// KIR3DL3 /// KIR3DS1 (11738374_at) / Fold change /veh KIR2DL2 /// KIR2DL4 /// KIR2DL5A /// KIR2DL5B /// KIR2DS1 /// KIR2DS2 /// KIR2DS3 /// KIR2DS4 /// KIR3DL3 /// KIR3DL3 /// KIR3DS1 (11738374_at) / RFU C1QL1 (11718748_at) / Fold change /veh C1QL1 (11718748_at) / RFU TMPRSS4 (11747572_a_at) / Fold change /veh TMPRSS4 (11747572_a_at) / RFU HAMP (11756126_x_at) / Fold change /veh HAMP (11756126_x_at) / RFU RNFT2 (11725882_a_at) / Fold change /veh RNFT2 (11725882_a_at) / RFU NR4A2 (11747474_a_at) / Fold change /veh NR4A2 (11747474_a_at) / RFU ABCC12 (11746883_a_at) / Fold change /veh ABCC12 (11746883_a_at) / RFU TMEM136 (11760407_x_at) / Fold change /veh TMEM136 (11760407_x_at) / RFU CLDN22 /// WWC2 (11732394_at) / Fold change /veh CLDN22 /// WWC2 (11732394_at) / RFU HLA-DPB1 (11760878_x_at) / Fold change /veh HLA-DPB1 (11760878_x_at) / RFU SPINT1 (11716480_a_at) / Fold change /veh SPINT1 (11716480_a_at) / RFU GAP43 (11754022_s_at) / Fold change /veh GAP43 (11754022_s_at) / RFU A4GNT (11735810_at) / Fold change /veh A4GNT (11735810_at) / RFU PRB3 (11715151_x_at) / Fold change /veh PRB3 (11715151_x_at) / RFU TUBB4B (11761932_at) / Fold change /veh TUBB4B (11761932_at) / RFU CAPN14 (11732068_a_at) / Fold change /veh CAPN14 (11732068_a_at) / RFU TMCC2 (11721928_a_at) / Fold change /veh TMCC2 (11721928_a_at) / RFU IRGQ (11745062_a_at) / Fold change /veh IRGQ (11745062_a_at) / RFU FAM174B (11720279_a_at) / Fold change /veh FAM174B (11720279_a_at) / RFU TMPRSS4 (11748680_a_at) / Fold change /veh TMPRSS4 (11748680_a_at) / RFU FAM212B (11763350_a_at) / Fold change /veh FAM212B (11763350_a_at) / RFU PLEKHG5 (11743358_a_at) / Fold change /veh PLEKHG5 (11743358_a_at) / RFU ZSCAN30 (11745921_a_at) / Fold change /veh ZSCAN30 (11745921_a_at) / RFU CMKLR1 (11741424_a_at) / Fold change /veh CMKLR1 (11741424_a_at) / RFU LOC101060620 /// MAPK8IP1 (11723275_at) / Fold change /veh LOC101060620 /// MAPK8IP1 (11723275_at) / RFU SPTSSB (11747773_x_at) / Fold change /veh SPTSSB (11747773_x_at) / RFU PRSS12 (11739890_at) / Fold change /veh PRSS12 (11739890_at) / RFU BIN1 (11741810_x_at) / Fold change /veh BIN1 (11741810_x_at) / RFU WNT11 (11732464_a_at) / Fold change /veh WNT11 (11732464_a_at) / RFU C10orf10 (11716521_a_at) / Fold change /veh C10orf10 (11716521_a_at) / RFU C5orf56 (11738089_at) / Fold change /veh C5orf56 (11738089_at) / RFU CYB561 (11721691_x_at) / Fold change /veh CYB561 (11721691_x_at) / RFU ANKRD19P (11752326_a_at) / Fold change /veh ANKRD19P (11752326_a_at) / RFU OR2T12 /// OR2T33 /// OR2T8 (11738714_s_at) / Fold change /veh OR2T12 /// OR2T33 /// OR2T8 (11738714_s_at) / RFU VCAN (11748164_a_at) / Fold change /veh VCAN (11748164_a_at) / RFU JSRP1 (11732532_at) / Fold change /veh JSRP1 (11732532_at) / RFU KRTAP10-11 (11738290_x_at) / Fold change /veh KRTAP10-11 (11738290_x_at) / RFU MYO3A (11730013_a_at) / Fold change /veh MYO3A (11730013_a_at) / RFU EBF3 (11725865_a_at) / Fold change /veh EBF3 (11725865_a_at) / RFU CAMK2N1 (11719241_x_at) / Fold change /veh CAMK2N1 (11719241_x_at) / RFU C5orf56 (11738088_a_at) / Fold change /veh C5orf56 (11738088_a_at) / RFU OLFML3 (11715873_a_at) / Fold change /veh OLFML3 (11715873_a_at) / RFU LOC100653217 /// NTM (11731650_a_at) / Fold change /veh LOC100653217 /// NTM (11731650_a_at) / RFU MAPK11 (11762145_a_at) / Fold change /veh MAPK11 (11762145_a_at) / RFU FIZ1 (11724087_x_at) / Fold change /veh FIZ1 (11724087_x_at) / RFU OASL (11726364_x_at) / Fold change /veh OASL (11726364_x_at) / RFU SOX15 (11748057_x_at) / Fold change /veh SOX15 (11748057_x_at) / RFU CD79A (11719716_a_at) / Fold change /veh CD79A (11719716_a_at) / RFU HIST1H1D (11736915_at) / Fold change /veh HIST1H1D (11736915_at) / RFU CASKIN2 (11723855_a_at) / Fold change /veh CASKIN2 (11723855_a_at) / RFU LOC730098 (11760151_x_at) / Fold change /veh LOC730098 (11760151_x_at) / RFU OR4N2 (11742367_at) / Fold change /veh OR4N2 (11742367_at) / RFU PRRT2 (11749266_a_at) / Fold change /veh PRRT2 (11749266_a_at) / RFU SNX32 (11753110_a_at) / Fold change /veh SNX32 (11753110_a_at) / RFU CDHR5 (11726645_a_at) / Fold change /veh CDHR5 (11726645_a_at) / RFU RCAN1 (11760418_a_at) / Fold change /veh RCAN1 (11760418_a_at) / RFU FAM167A (11723789_a_at) / Fold change /veh FAM167A (11723789_a_at) / RFU FAM26E (11764081_at) / Fold change /veh FAM26E (11764081_at) / RFU ISYNA1 (11749810_s_at) / Fold change /veh ISYNA1 (11749810_s_at) / RFU ACY1 (11761880_at) / Fold change /veh ACY1 (11761880_at) / RFU 11764098_at / Fold change /veh 11764098_at / RFU SAMD14 (11745864_x_at) / Fold change /veh SAMD14 (11745864_x_at) / RFU NPB (11741838_a_at) / Fold change /veh NPB (11741838_a_at) / RFU TMPRSS6 (11731388_a_at) / Fold change /veh TMPRSS6 (11731388_a_at) / RFU KRTAP10-2 (11738614_at) / Fold change /veh KRTAP10-2 (11738614_at) / RFU ARHGAP8 /// PRR5-ARHGAP8 (11727945_x_at) / Fold change /veh ARHGAP8 /// PRR5-ARHGAP8 (11727945_x_at) / RFU KRTAP5-7 /// NADSYN1 (11734609_at) / Fold change /veh KRTAP5-7 /// NADSYN1 (11734609_at) / RFU RASL12 (11751679_a_at) / Fold change /veh RASL12 (11751679_a_at) / RFU CDKN2B (11736163_a_at) / Fold change /veh CDKN2B (11736163_a_at) / RFU PRF1 (11729649_at) / Fold change /veh PRF1 (11729649_at) / RFU, ZNF638 /// ZNF638-IT1 / Fold change vs veh, ZNF638 /// ZNF638-IT1 / RFU, PANK3 / Fold change vs veh, PANK3 / RFU, SH3YL1 / Fold change vs veh, SH3YL1 / RFU, ZEB2 / Fold change vs veh, ZEB2 / RFU, NRIP1 / Fold change vs veh, NRIP1 / RFU, PTTG1IP / Fold change vs veh, PTTG1IP / RFU, CAPN2 / Fold change vs veh, CAPN2 / RFU, MED14 / Fold change vs veh, MED14 / RFU, SNORA58 / Fold change vs veh, SNORA58 / RFU, C1orf63 / Fold change vs veh, C1orf63 / RFU, LRRFIP1 / Fold change vs veh, LRRFIP1 / RFU, NDUFAF7 / Fold change vs veh, NDUFAF7 / RFU, SLC12A2 / Fold change vs veh, SLC12A2 / RFU, IBTK / Fold change vs veh, IBTK / RFU, ESF1 / Fold change vs veh, ESF1 / Fold change vs veh, TMEM50B / RFU, TAOK1 / Fold change vs veh, TAOK1 / RFU, ACBD3 / Fold change vs veh, ACBD3 / RFU, TMA16 / Fold change vs veh, TMA16 / RFU, RWDD3 / Fold change vs veh, RWDD3 / RFU, BCAT1 / Fold change vs veh, BCAT1 / RFU, EDEM3 / Fold change vs veh, EDEM3 / RFU, TMEM33 / Fold change vs veh, TMEM33 / RFU, WDR75 / Fold change vs veh, WDR75 / RFU, AHCTF1 / Fold change vs veh, AHCTF1 / RFU, TFRC / Fold change vs veh, TFRC / RFU, ZDHHC17 / Fold change vs veh, ZDHHC17 / RFU, NOM1 / Fold change vs veh, NOM1 / RFU, ARL8B / Fold change vs veh, ARL8B / RFU, ZBTB11 / Fold change vs veh, ZBTB11 / RFU, TAMM41 / Fold change vs veh, TAMM41 / RFU, KIAA1704 /// LOC100996395 / Fold change vs veh, KIAA1704 /// LOC100996395 / RFU, ING1 / Fold change vs veh, ING1 / RFU, TRMT61B / Fold change vs veh, TRMT61B / RFU, FUBP3 / Fold change vs veh, FUBP3 / RFU, TP53 / Fold change vs veh, TP53 / RFU, TNKS2 / Fold change vs veh, TNKS2 / RFU, ZFP14 / Fold change vs veh, ZFP14 / RFU, ACTR2 / Fold change vs veh, ACTR2 / RFU, PPP3R1 / Fold change vs veh, PPP3R1 / RFU, PIK3R1 / Fold change vs veh, PIK3R1 / RFU, HNRNPA1 / Fold change vs veh, HNRNPA1 / RFU, RNF170 / Fold change vs veh, RNF170 / RFU, ZNF28 / Fold change vs veh, ZNF28 / RFU, RNGTT / Fold change vs veh, RNGTT / RFU, OGT / Fold change vs veh, OGT / RFU, BRD1 / Fold change vs veh, BRD1 / RFU, MARS / Fold change vs veh, MARS / RFU, ZNF655 / Fold change vs veh, ZNF655 / RFU, FAHD1 / Fold change vs veh, FAHD1 / RFU, BDP1 / Fold change vs veh, BDP1 / RFU, LRRCC1 / Fold change vs veh, LRRCC1 / RFU, ARID1A / Fold change vs veh, ARID1A / RFU, ZNF146 / Fold change vs veh, ZNF146 / RFU, ZNF330 / Fold change vs veh, ZNF330 / RFU, GPN3 / Fold change vs veh, GPN3 / RFU, C9orf123 / Fold change vs veh, C9orf123 / RFU, N4BP2L2 / Fold change vs veh, N4BP2L2 / RFU, ARFIP1 / Fold change vs veh, ARFIP1 / RFU, FAM179B / Fold change vs veh, FAM179B / RFU, BCL10 / Fold change vs veh, BCL10 / RFU, UHRF1BP1L / Fold change vs veh, UHRF1BP1L / RFU, BET1 / Fold change vs veh, BET1 / RFU, CNOT2 / Fold change vs veh, CNOT2 / RFU, ZNF268 / Fold change vs veh, ZNF268 / Fold change vs veh, ZNF507 / RFU, DGCR2 / Fold change vs veh, DGCR2 / RFU, WDSUB1 / Fold change vs veh, WDSUB1 / Fold change vs veh, HSP90B1 /// MIR3652 / RFU, ADSS / Fold change vs veh, ADSS / RFU, GK / Fold change vs veh, GK / RFU, ZNF148 / Fold change vs veh, ZNF148 / RFU, TAF9 / Fold change vs veh, TAF9 / RFU, SLC1A5 / Fold change vs veh, SLC1A5 / RFU, SLMO2 / Fold change vs veh, SLMO2 / RFU, ABCC4 / Fold change vs veh, ABCC4 / RFU, LOC101060439 /// RAP1B / Fold change vs veh, LOC101060439 /// RAP1B / RFU, RFX7 / Fold change vs veh, RFX7 / RFU, GTPBP10 / Fold change vs veh, GTPBP10 / RFU, CNEP1R1 / Fold change vs veh, CNEP1R1 / RFU, BIVM-ERCC5 /// ERCC5 / Fold change vs veh, BIVM-ERCC5 /// ERCC5 / RFU, ILF3 / Fold change vs veh, ILF3 / RFU 11762660_at / Fold change /veh 11762660_at / RFU VCAN (11757783_s_at) / Fold change /veh VCAN (11757783_s_at) / RFU DDX43 (11728927_at) / Fold change /veh DDX43 (11728927_at) / RFU KRT8 (11758188_x_at) / Fold change /veh KRT8 (11758188_x_at) / RFU NKD1 (11759106_at) / Fold change /veh NKD1 (11759106_at) / RFU SRD5A1 (11742802_a_at) / Fold change /veh SRD5A1 (11742802_a_at) / RFU TPSAB1 /// TPSB2 (11721975_s_at) / Fold change /veh TPSAB1 /// TPSB2 (11721975_s_at) / RFU GSTM3 (11746129_a_at) / Fold change /veh GSTM3 (11746129_a_at) / RFU IL23R (11737362_x_at) / Fold change /veh IL23R (11737362_x_at) / RFU TMEM51 (11727254_a_at) / Fold change /veh TMEM51 (11727254_a_at) / RFU PIWIL2 (11732686_x_at) / Fold change /veh PIWIL2 (11732686_x_at) / RFU ORM1 (11744905_x_at) / Fold change /veh ORM1 (11744905_x_at) / RFU CCDC152 (11743942_at) / Fold change /veh CCDC152 (11743942_at) / RFU ECM1 (11717891_a_at) / Fold change /veh ECM1 (11717891_a_at) / RFU IL23R (11748794_a_at) / Fold change /veh IL23R (11748794_a_at) / RFU TNFAIP8L3 (11732012_x_at) / Fold change /veh TNFAIP8L3 (11732012_x_at) / RFU MBOAT4 (11741988_at) / Fold change /veh MBOAT4 (11741988_at) / RFU 11764193_at / Fold change /veh 11764193_at / RFU TMEM53 (11763286_at) / Fold change /veh TMEM53 (11763286_at) / RFU MAGEB2 (11727129_at) / Fold change /veh MAGEB2 (11727129_at) / RFU TMEM200A (11744735_a_at) / Fold change /veh TMEM200A (11744735_a_at) / RFU CCDC152 (11751479_a_at) / Fold change /veh CCDC152 (11751479_a_at) / RFU FAM211A (11726209_a_at) / Fold change /veh FAM211A (11726209_a_at) / RFU RGS16 (11746705_a_at) / Fold change /veh RGS16 (11746705_a_at) / RFU VCAN (11755009_s_at) / Fold change /veh VCAN (11755009_s_at) / RFU RHOB (11743442_s_at) / Fold change /veh RHOB (11743442_s_at) / RFU RGS16 (11720943_a_at) / Fold change /veh RGS16 (11720943_a_at) / RFU RGS16 (11720944_at) / Fold change /veh RGS16 (11720944_at) / RFU, VPS4B / Fold change vs veh, VPS4B / RFU, CREB1 / Fold change vs veh, CREB1 / RFU, DNAJC13 / Fold change vs veh, DNAJC13 / RFU, GNAQ / Fold change vs veh, GNAQ / RFU, CDK5R1 / Fold change vs veh, CDK5R1 / RFU, ZRANB3 / Fold change vs veh, ZRANB3 / RFU, CUL4A / Fold change vs veh, CUL4A / RFU, CCNY / Fold change vs veh, CCNY / RFU, UFL1 / Fold change vs veh, UFL1 / RFU, COG3 / Fold change vs veh, COG3 / RFU, DIAPH2 / Fold change vs veh, DIAPH2 / RFU, SKA2 / Fold change vs veh, SKA2 / RFU, AFF3 / Fold change vs veh, AFF3 / RFU, LMF1 / Fold change vs veh, LMF1 / RFU, IPO11 / Fold change vs veh, IPO11 / RFU, DFFB / Fold change vs veh, DFFB / RFU, FOXP1 / Fold change vs veh, FOXP1 / RFU, CARD8 / Fold change vs veh, CARD8 / RFU, STRN3 / Fold change vs veh, STRN3 / RFU, ADK / Fold change vs veh, ADK / RFU, RASSF2 / Fold change vs veh, RASSF2 / RFU, WIPF1 / Fold change vs veh, WIPF1 / RFU, LARP1B / Fold change vs veh, LARP1B / RFU, RASA1 / Fold change vs veh, RASA1 / RFU, RB1 / Fold change vs veh, RB1 / RFU, PPFIA1 / Fold change vs veh, PPFIA1 / RFU, MAT2A / Fold change vs veh, MAT2A / RFU, CCT5 / Fold change vs veh, CCT5 / RFU, WDR92 / Fold change vs veh, WDR92 / RFU, CUX1 / Fold change vs veh, CUX1 / RFU, TTC7A / Fold change vs veh, TTC7A / RFU, TMEM135 / Fold change vs veh, TMEM135 / RFU, DEPTOR / Fold change vs veh, DEPTOR / RFU, CPM / Fold change vs veh, CPM / RFU, DNAJB6 / Fold change vs veh, DNAJB6 / RFU, CACNA2D3 / Fold change vs veh, CACNA2D3 / RFU, DTX4 / Fold change vs veh, DTX4 / RFU, TFCP2 / Fold change vs veh, TFCP2 / RFU, GMCL1 /// GMCL1P1 / Fold change vs veh, GMCL1 /// GMCL1P1 / RFU, AEBP2 / Fold change vs veh, AEBP2 / RFU, SNHG1 /// SNORD22 /// SNORD25 /// SNORD26 /// SNORD27 /// SNORD28 /// SNORD29 /// SNORD31 / Fold change vs veh, SNHG1 /// SNORD22 /// SNORD25 /// SNORD26 /// SNORD27 /// SNORD28 /// SNORD29 /// SNORD31 / Fold change (Aza/veh), C12orf56 (ProbeSet 11735607_a_at) / Fold change (ACY-1035/veh), C12orf56 (ProbeSet 11735607_a_at) / Fold change (Aza/veh), FGFR1OP (ProbeSet 11751329_s_at) / Fold change (ACY-1035/veh), FGFR1OP (ProbeSet 11751329_s_at) / Fold change (Aza/veh), VPS36 (ProbeSet 11739960_a_at) / Fold change (ACY-1035/veh), VPS36 (ProbeSet 11739960_a_at) / RFU SYPL1 (11715823_x_at) / Fold change /veh SYPL1 (11715823_x_at) / RFU IGFBP7 (11715501_s_at) / Fold change /veh IGFBP7 (11715501_s_at) / RFU REEP3 (11722064_at) / Fold change /veh REEP3 (11722064_at) / RFU IGLL1 (11728026_x_at) / Fold change /veh IGLL1 (11728026_x_at): dose or concentration left out as unconfirmed
Conditions: ProbeSet 11755425_a_at; LIST B

`Nc1ncn([C@@H]2O[C@H](CO)[C@@H](O)[C@H]2O)c(=O)n1` [azacitidine] was tested, and the “RFU, FAM179B” value was 66.28 RFU.
